Measurements reported in patent US7294635B2 (Portola Pharmaceuticals, Inc., priority 2003, dated 2007).
pIC50: −log10 of the molar value.

Tested on: ADP-induced human platelet aggregation
Assay: Inhibition of ADP-mediated platelet aggregation in vitro using platelet-rich plasma (PRP assay)
Type: cell-based
Conditions: 5 min; human platelet-rich plasma, 2 μM ADP, 96-well microtiter, OD 650 nm at 5 min; read-out: Activity in the PRP assay
Procedure: This Example Provides an Assay for the Inhibition of ADP-Mediated Platelet Aggregation In Vitro Using Platelet-Rich Plasma (PRP)
Platelet-rich plasma (PRP) is prepared by centrifugation at 160×g for 20 minutes at room temperature. PRP is collected, and the platelet concentration is determined using a Coulter counter or hemocytometer (platelet concentration should be 2-4×10^8 platelets per mL).
Inhibition of ADP-dependent aggregation is preferably determined in 96-well flat-bottom microtiter plates using a microtiter plate shaker and plate reader similar to the procedure described by Frantantoni et al., Am. J. Clin. Pathol. […] All steps are performed at room temperature. The total reaction volume of 0.2 mL/well includes: PRP (˜6×10^7 total platelets in the presence of plasma), serial dilutions of test compounds (buffer for control wells) in 0.6% DMSO. After about 5 minutes preincubation at room temperature, ADP is added to a final concentration of 2 μM which induces submaximal aggregation. Buffer is added instead of ADP to one set of control wells (ADP-control). The OD of the samples is then determined at 650 nm using a microtiter plate reader (Softmax, Molecular Devices, Menlo Park, Calif.) resulting in the 0 minute reading. The plates are then agitated for 5 min on a microtiter plate shaker and the 5 minute reading is obtained in the plate reader. Aggregation is calculated from the decrease of OD at 650 nm at t=5 minutes compared to t=0 minutes and is expressed as % of the decrease in the ADP control samples after correcting for changes in the unaggregated control samples.

SMILES | pIC50
CNc1cc2ccn(-c3cnc(NC(=O)NS(=O)(=O)c4ccc(Cl)s4)c(C)c3)c(=O)c2cc1F [Example 60, 5-chloro-N-[({5-[7-fluoro-6-(methylamino)-1-oxoisoquinolin-2(1H)-yl]-3-methylpyridin-2-yl}amino)carbonyl]thiophene-2-sulfonamide] | > 5.00
CNc1cc2ccn(-c3cnc(NC(=O)NS(=O)(=O)c4ccc(Cl)s4)nc3)c(=O)c2cc1F [Example 61, 5-chloro-N-[({5-[7-fluoro-6-(methylamino)-1-oxoisoquinolin-2(1H)-yl]pyrimidin-2-yl}amino)carbonyl]thiophene-2-sulfonamide] | > 5.00
CNc1cc2ccn(-c3ccc(NC(=O)NS(=O)(=O)c4ccc(Cl)s4)cc3COC(C)=O)c(=O)c2cc1F [Example 62, 5-[({[(5-chlorothien-2-yl)sulfonyl]amino}carbonyl)amino]-2-[7-fluoro-6-(methylamino)-1-oxoisoquinolin-2(1H)-yl]benzyl acetate] | 4.52 to 5.00
CNc1cc2ccn(-c3ccc(NC(=O)NS(=O)(=O)c4ccc(Cl)s4)cc3CO)c(=O)c2cc1F [Example 63, 5-chloro-N-({[4-[7-fluoro-6-(methylamino)-1-oxoisoquinolin-2(1H)-yl]-3-(hydroxymethyl)phenyl]amino}carbonyl)thiophene-2-sulfonamide] | > 5.00
CCOC(=O)c1cc(NC(=O)NS(=O)(=O)c2ccc(Cl)s2)ccc1-n1ccc2cc(NC)c(F)cc2c1=O [Example 65, ethyl 5-[({[(5-chlorothien-2-yl)sulfonyl]amino}carbonyl)amino]-2-[7-fluoro-6-(methylamino)-1-oxoisoquinolin-2(1H)-yl]benzoate] | 4.52 to 5.00
CNc1cc2ccn(-c3ccc(NC(=O)NS(=O)(=O)c4ccc(Cl)s4)cc3C#N)c(=O)c2cc1F [Example 67, 5-chloro-N-[({3-cyano-4-[7-fluoro-6-(methylamino)-1-oxoisoquinolin-2(1H)-yl]phenyl}amino)carbonyl]thiophene-2-sulfonamide] | 4.52 to 5.00
CNc1cc2ccn(-c3ccc(NC(=O)NS(=O)(=O)c4ccc(Cl)s4)cc3C(N)=O)c(=O)c2cc1F [Example 68, 5-[({[(5-chlorothien-2-yl)sulfonyl]amino}carbonyl)amino]-2-[7-fluoro-6-(methylamino)-1-oxoisoquinolin-2(1H)-yl]benzamide] | 4.52 to 5.00
CNc1cc2ccn(-c3ccc(NC(=O)NS(=O)(=O)c4ccc(Cl)s4)cc3C(C)=O)c(=O)c2cc1F [Example 70, N-[({3-acetyl-4-[7-fluoro-6-(methylamino)-1-oxoisoquinolin-2(1H)-yl]phenyl}amino)carbonyl]-5-chlorothiophene-2-sulfonamide] | 4.52 to 5.00
CCc1cc(NC(=O)NS(=O)(=O)c2ccc(Cl)s2)ccc1-n1ccc2cc(NC)c(F)cc2c1=O [Example 73, 5-chloro-N-[({3-ethyl-4-[7-fluoro-6-(methylamino)-1-oxoisoquinolin-2(1H)-yl]phenyl}amino)carbonyl]thiophene-2-sulfonamide] | 4.52 to 5.00
CNc1cc2ccn(-c3ccc(NC(=O)NS(=O)(=O)c4ccc(Cl)s4)cc3C(C)O)c(=O)c2cc1F (stereo not drawn) [Example 74, 5-chloro-N-({[4-[7-fluoro-6-(methylamino)-1-oxoisoquinolin-2(1H)-yl]-3-(1-hydroxyethyl)phenyl]amino}carbonyl)thiophene-2-sulfonamide] | < 4.52
CNc1cc2ccn(-c3ccc(NC(=O)NS(=O)(=O)c4ccc(Cl)s4)c(OC)c3)c(=O)c2cc1F [Example 75, 5-chloro-N-[({4-[7-fluoro-6-(methylamino)-1-oxoisoquinolin-2(1H)-yl]-2-methoxyphenyl}amino)carbonyl]thiophene-2-sulfonamide] | > 5.00
CNc1cc2ccn(-c3ccc(NC(=O)NS(=O)(=O)c4ccc(Cl)s4)c(OCOC)c3)c(=O)c2cc1F [Example 76, 5-chloro-N-({[4-[7-fluoro-6-(methylamino)-1-oxoisoquinolin-2(1H)-yl]-2-(methoxymethoxy)phenyl]amino}carbonyl)thiophene-2-sulfonamide] | > 5.00
